Reference: patent US5114967A, “Antibiotic alisamycin and its use” (Hoechst Aktiengesellschaft, priority 1990, dated 1992)
Converted amounts (≈) assume the structure as drawn.

Legend:
[1] = system: gram-negative bacteria; assay: antibacterial activity (general statement); assay type: cell-based
[2] = system: Candida albicans; assay: agar-well method in Antibiotic Assay medium; conditions: read-out: Zone diam
[3] = system: Piriicularia oryzae; assay: agar-well method in Antibiotic Assay medium; assay type: cell-based
[4] = system: Botrytis cinerea 47; assay: agar-well method in Antibiotic Assay medium; conditions: Botrytis cinerea, 47, read-out: Zone diam
[5] = system: Streptococcus faecalis UD8b; assay: agar-well method in Antibiotic Assay medium; conditions: Enterococcus faecalis, read-out: Zone diam
[6] = system: Streptococcus faecalis Eder; conditions: Enterococcus faecalis
[7] = system: Streptococcus faecalis UD8b; conditions: Enterococcus faecalis
[8] = antitumor activity
[9] = system: Botrytis cinerea 47
[10] = system: Staphylococcus aureus 20424; assay: agar-well method in Antibiotic Assay medium; conditions: Staphylococcus aureus, 20424, read-out: Zone diam
[11] = system: Streptococcus faecalis 23241; assay: agar-well method in Antibiotic Assay medium; conditions: Enterococcus faecalis, 23241, read-out: Zone diam
[12] = system: Streptococcus faecalis Eder; assay: agar-well method in Antibiotic Assay medium; conditions: Enterococcus faecalis, read-out: Zone diam
[13] = solubility; assay type: physicochemical
[14] = system: Staphylococcus aureus 209 p
[15] = system: Candida albicans
[16] = antiparasitic activity
[17] = system: Staphylococcus aureus E88
[18] = system: Staphylococcus aureus 209 p; assay: agar-well method in Antibiotic Assay medium; conditions: read-out: Zone diam
[19] = system: gram-positive bacteria; assay: antibacterial activity (general statement); assay type: cell-based
[20] = system: Escherichia coli 9632
[21] = system: Piriicularia oryzae; assay type: cell-based
[22] = system: Streptococcus faecalis 23241; conditions: Enterococcus faecalis
[23] = system: Staphylococcus aureus 20424
[24] = system: Staphylococcus aureus E88; assay: agar-well method in Antibiotic Assay medium; conditions: E88, read-out: Zone diam

With `O=C(/C=C/C=C/C1CCCCC1)NC1=CC(O)(/C=C/C=C/C=C/C(=O)NC2=C(O)CCC2=O)C2OC2C1=O` (centres unmarked) [Alisamycin] the “activity against gram-negative bacteria” value [1] was “active”, the zone of inhibition at 500 µg/mL [2] was 10 mm and the zone of inhibition at 32 µg/mL ([3]; 32 μg/ml) was 11 mm. The zone of inhibition at 500 µg/mL ([3]; 500 μg/ml) was 15 mm, the zone of inhibition at 500 µg/mL [4] was 20 mm and the zone of inhibition at 32 µg/mL [5] was 13 mm. For the same molecule, the zone of inhibition at 500 µg/mL [5] was 16 mm, the MIC [6] was 6.4 µg/mL (≈ 12.3 µM) and the MIC [7] was > 50 µg/mL. For the same molecule, the antitumor activity [8] was “found to have antitumor”, the MIC [9] was > 50 µg/mL and the zone of inhibition at 32 µg/mL [10] was 19 mm. The zone of inhibition at 500 µg/mL [10] was 25 mm, the zone of inhibition at 32 µg/mL [11] was 13 mm and the zone of inhibition at 500 µg/mL [11] was 22 mm. The zone of inhibition at 32 µg/mL [12] was 16 mm, the zone of inhibition at 500 µg/mL [12] was 23 mm and the solubility ([13]; acetonitrile) was “fairly soluble”. For the same molecule, the solubility ([13]; chloroform) was “fairly soluble”, the solubility ([13]; dimethylsulfoxide) was “very soluble” and the solubility ([13]; ethanol) was “poorly soluble”. For the same molecule, the solubility ([13]; ethyl acetate) was “fairly soluble”, the solubility ([13]; hexane) was “poorly soluble” and the solubility ([13]; methanol) was “poorly soluble”. For the same molecule, the solubility ([13]; methylene chloride) was “fairly soluble”, the solubility ([13]; petroleum ether) was “poorly soluble” and the solubility ([13]; propylene glycol) was “very soluble”. For the same molecule, the solubility ([13]; water) was “poorly soluble”, the MIC [14] was 1.6 µg/mL (≈ 3.07 µM) and the MIC [15] was 50 µg/mL (≈ 96 µM). The antiparasitic activity [16] was “antiparasitic activities”, the MIC [17] was 6.4 µg/mL (≈ 12.3 µM) and the zone of inhibition at 32 µg/mL [18] was 18.5 mm. The zone of inhibition at 500 µg/mL [18] was 26 mm, the “activity against gram-positive bacteria” value [19] was “active” and the MIC [20] was > 50 µg/mL. The MIC [21] was > 50 µg/mL, the MIC [22] was 6.4 µg/mL (≈ 12.3 µM) and the MIC [23] was 3.2 µg/mL (≈ 6.15 µM). The zone of inhibition at 32 µg/mL [24] was 14 mm and the zone of inhibition at 500 µg/mL [24] was 27 mm.
